Results published in patent US10889609B2, “Mannitol-based amphipathic compound and use thereof” (Industry-University Cooperation Foundation Hanyang …, priority 2015, dated 2021).
“And” between values parts separate entries of the source, which are not always exact repeats. Equal entries are not always repeated.

Tests used:
[1] = target: T1, boron transporter (Bor1) (Arabidopsis thaliana, UniProt Q8VYR7); assay: Structural stability and extraction of Bor1 by heat fluorescence size exclusion chromatography (hFSEC); details: for level of Bor1 protein aggregation after heat treatment: 40° C. for 10 minutes, FIG. 18
T1 construct: made in house; host or cells: Saccharomyces cerevisiae FGY217
T1 sequence (Q8VYR7 whole entry): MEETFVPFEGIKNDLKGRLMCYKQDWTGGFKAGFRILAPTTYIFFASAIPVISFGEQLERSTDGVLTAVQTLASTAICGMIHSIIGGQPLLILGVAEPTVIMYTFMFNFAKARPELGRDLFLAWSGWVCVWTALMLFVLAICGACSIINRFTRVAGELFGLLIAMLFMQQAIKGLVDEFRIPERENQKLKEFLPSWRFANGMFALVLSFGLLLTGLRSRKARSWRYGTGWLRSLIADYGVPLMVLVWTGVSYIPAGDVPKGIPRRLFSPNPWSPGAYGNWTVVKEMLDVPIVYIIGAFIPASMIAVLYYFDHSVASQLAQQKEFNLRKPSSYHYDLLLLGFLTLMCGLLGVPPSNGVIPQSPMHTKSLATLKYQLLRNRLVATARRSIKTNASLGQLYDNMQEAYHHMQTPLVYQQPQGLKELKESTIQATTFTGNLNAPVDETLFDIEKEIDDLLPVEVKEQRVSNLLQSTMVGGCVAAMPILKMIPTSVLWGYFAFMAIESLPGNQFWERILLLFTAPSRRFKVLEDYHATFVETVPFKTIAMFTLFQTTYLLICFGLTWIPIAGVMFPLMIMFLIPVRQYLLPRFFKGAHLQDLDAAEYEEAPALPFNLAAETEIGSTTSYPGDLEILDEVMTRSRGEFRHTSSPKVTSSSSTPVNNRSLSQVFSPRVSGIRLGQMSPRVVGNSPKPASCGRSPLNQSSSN
Protocol: An experiment for measuring the structural stability of a boron transporter (Bor1) by the MNAs was performed. The structural stability of Bor1 was measured using heat fluorescence size exclusion chromatography (hFSEC), and the concentrations of the MNAs and DDM were CMC plus 0.04% by weight. Specifically, Bor1 of Arabidopsis thaliana was expressed in Saccharomyces cerevisiae FGY217 cells as a fusion protein having a C-terminal GFP-His tag. The cells were grown in a -URA medium supplemented with 0.1% glucose. Expression of proteins was induced by adding 2% galactose, and the cells were then cultured at 20° C. for 18 hours. Here, the cell culture was carried out according to the method described in the article by D. Drew et al. (Nat. Protoc. 2008, 3, 784-798.). The cells were collected to prepare membranes, and the cell collection was carried out according to the method described in the article by J. Leung et al. (Protein Expr. Purif. 2010, 72, 139-146.). The membranes including the Bor1-GFP fusion protein were diluted with phosphate-buffered saline (PBS, pH 7.4) until the final concentration of the total proteins reached 2.8 mg/mL. In this case, 1% by weight of DDM or 1% by weight of MNA (MNA-1, MNA-2, MNA-3, MNA-4, MNA-5, MNA-6, or MNA-7) was added to the PBS. Samples were incubated for an hour while shaking at 4° C., and insoluble materials were then removed by centrifugation at 14,000 g and 4° C. for an hour. The supernatant including the dissolved protein samples was heated at 40° C. for 10 minutes, and the strongly aggregated proteins were removed by centrifugation at 14,000 g and 4° C. for 10 minutes. 200 μL of the supernatant of the samples was injected into a Superose 6 10/300 column equilibrated with 20 mM Tris (pH 7.5), 150 mM NaCl, and 0.03% DDM. Each of elution fractions was collected in 200 μL fractions at a retention volume of 6.4 mL (e.g., 6.4 mL after elusion) in a clear bottom 96-well plate. The GFP fluorescence of each of the fractions was measured at an excitation wavelength of 470 nm and an emission wavelength of 512 nm.

[2] = Critical micellar concentration (CMC) by hydrophobic fluorescence stain diphenylhexatriene (DPH); format: physicochemical
Excerpt: A method of measuring the CMC is not particularly limited, but the methods widely known in the related art may be used. For example, the CMC may be measured by a fluorescence detection method using diphenylhexatriene (DPH).
(§1) To determine characteristics of the MNAs of Preparative Example 1 to 10 synthesized according to the synthesis method of Example 1, the molecular weights (M.W.) and critical micellar concentrations (CMCs) of the MNAs and the hydrodynamic radii (Rh) of the formed micelles were measured.
(§2) Specifically, the critical micellar concentration (CMC) was measured using a hydrophobic fluorescence stain (diphenylhexatriene (DPH)), and the hydrodynamic radii (Rh) of the micelles formed by each of the preparations were measured by a dynamic light scattering (DLS) experiment. The measured results were compared to those of DDM that is a conventional amphipathic molecule (a detergent), and are listed in Table 1.

[3] = Hydrodynamic radius and size distribution of micelles by dynamic light scattering (DLS); format: physicochemical
Excerpt: A method of measuring the radius of the micelle is not particularly limited, but the methods widely known in the related art may be used. For example, the radius of the micelle may be measured using a dynamic light scattering (DLS) experiment.
as §1, §2
Meanwhile, the size distributions of the micelles formed by the MNAs were measured using DLS, and the measurement results are shown in FIG. 17. The MNAs were used at a content of 1.0% by weight.

[4] = target: T2, human β2 adrenergic receptor (β2AR) (Homo sapiens, UniProt P07550); assay: Negative-stain electron microscopy (EM) of β2AR dissolved in detergent; details: negative staining, compared to DDM, FIG. 24
T2 construct: made in house
T2 sequence (P07550 whole entry): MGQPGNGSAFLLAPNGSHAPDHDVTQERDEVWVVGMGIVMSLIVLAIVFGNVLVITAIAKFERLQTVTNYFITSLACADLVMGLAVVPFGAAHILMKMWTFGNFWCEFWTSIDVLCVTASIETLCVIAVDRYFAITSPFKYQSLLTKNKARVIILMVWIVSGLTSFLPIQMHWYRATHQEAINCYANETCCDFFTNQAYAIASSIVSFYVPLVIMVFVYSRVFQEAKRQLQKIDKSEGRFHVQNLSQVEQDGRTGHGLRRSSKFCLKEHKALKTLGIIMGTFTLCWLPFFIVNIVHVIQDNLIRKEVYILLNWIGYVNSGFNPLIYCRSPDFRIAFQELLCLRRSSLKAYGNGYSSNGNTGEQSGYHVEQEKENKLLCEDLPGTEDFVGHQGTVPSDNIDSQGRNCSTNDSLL
Protocol: A β2AR protein analysis test was performed for DDM, MNA-6, or MNA-7 using an electron microscope.
Specifically, samples were prepared using the conventional negative staining protocol disclosed in the article by M. Ohi et al. (Biol. Proced. Online 2004, 6, 23-34.). In summary, 3 μL of β2AR dissolved in DDM, MNA-6, or MNA-7 was pipetted onto a glow-discharged carbon-coated grid, and stained with 1% (w/v) uranyl formate. Thereafter, the β2AR was imaged at room temperature by running a Morgagni 268(D) transmission electron microscope (FEI Company) at 100 kV. The images were recorded at 30,416×calibrated magnification using an Orius SC200W CCD camera (Gatan Inc.).

[5] = target: T2, human β2 adrenergic receptor (β2AR); assay: mBBr-β2AR bimane spectra at detergent concentration below CMC; format: biochemical; details: detergent diluted to a fiftieth of its CMC, compared to DDM, FIG. 21
Protocol: Experiments for comparing the structural changes of the β2AR protein by the MNAs and DDM at a concentration below CMCs of the amphipathic molecules were performed.
Specifically, 0.5 μL of a non-ligand mBBr-labeled receptor dissolved at 50 μNI in a 20×CMC concentration of MNA-5, MNA-6, or MNA-7 was diluted with 500 μL of an NH buffer (20 mM HEPES pH 7.5, and 100 mM NaCl). The proteins were cultured for 30 minutes, and the bimane spectra thereof were measured. The receptor dissolved in 0.1% DDM was diluted with the NH buffer, and used as the control. Data was presented as an average of three separate experiments performed in triplicate.

[6] = target: T2, human β2 adrenergic receptor (β2AR); assay: Size exclusion chromatography (SEC) of β2AR protein-detergent complexes (PDCs); details: Superdex-200, FIG. 23
Protocol: An SEC analysis was performed to determine the size of the protein-amphipathic molecule complex (i.e., a protein-detergent complex (PDC)) formed by DDM, MNA-6, or MNA-7.
Specifically, the β2AR dissolved in DDM, MNA-6 or MNA-7 was used as a test sample in the same manner as used in Example 5-3. The sample was loaded onto a Superdex-200 10/300 GL column (GE Healthcare) at 0.5 ml/min, an innate tryptophane fluorescence signal was measured at an excitation wavelength of 295 nm and an emission wavelength of 345 nm. A running buffer includes 20 mM HEPES pH 7.5, 100 mM NaCl, and 20×CMC MNA-6 or MNA-7. A difference in retention volume of the protein samples means a difference in size of the protein-detergent complexes (PDCs) formed in the presence of the amphipathic molecules.

SMILES | Bor1 extraction efficiency ([1]; 1% by weight detergent, membranes with Bor1-GFP) [%] | level of Bor1 protein aggregation after heat treatment ([1]; hFSEC) | CMC value [2] [µM] | CMC ([2]; aqueous solution) [mM] | CMC (% by weight) ([2]; aqueous solution) | Rh (nm), hydrodynamic radius of micelles [3] | effect on stabilization of Bor1 ([1]; hFSEC, aggregation level and size of target protein peak) | EM image background of dissolved β2AR [4] | stability of β2AR [5] | size of β2AR protein-detergent complexes (PDCs) [6]
CCCCCCCCCCCCO[C@@H]1O[C@H](CO)[C@@H](O[C@H]2O[C@H](CO)[C@@H](O)[C@H](O)[C@H]2O)[C@H](O)[C@H]1O [DDM, n-dodecyl-β-D-maltopyranoside, reference compound] | 80 | significant level of protein aggregation | 170 | ~0.17 | Approximately 0.0087 % by weight | 3.4 nm and 3.4 ± 0.03 nm |  |  |  | 
CCCCCCCCO[C@H]([C@@H](OCCCCCCCC)[C@H](CO[C@@H]1OC(CO)[C@@H](O)C(O)C1O)O[C@@H]1OC(CO)[C@@H](O)C(O)C1O)[C@H](CO[C@@H]1OC(CO)[C@@H](O)C(O)C1O)O[C@@H]1OC(CO)[C@@H](O)C(O)C1O (some centres unmarked) [MNA-1] |  |  |  | ~0.15 |  | 2.3 nm and 2.3 ± 0.13 nm |  |  |  | 
CCCCCCCCCO[C@H]([C@@H](OCCCCCCCCC)[C@H](CO[C@@H]1OC(CO)[C@@H](O)C(O)C1O)O[C@@H]1OC(CO)[C@@H](O)C(O)C1O)[C@H](CO[C@@H]1OC(CO)[C@@H](O)C(O)C1O)O[C@@H]1OC(CO)[C@@H](O)C(O)C1O (some centres unmarked) [MNA-2] |  |  |  | ~0.05 |  | 2.5 nm and 2.5 ± 0.05 nm |  |  |  | 
CCCCCCCCCCO[C@H]([C@@H](OCCCCCCCCCC)[C@H](CO[C@@H]1OC(CO)[C@@H](O)C(O)C1O)O[C@@H]1OC(CO)[C@@H](O)C(O)C1O)[C@H](CO[C@@H]1OC(CO)[C@@H](O)C(O)C1O)O[C@@H]1OC(CO)[C@@H](O)C(O)C1O (some centres unmarked) [MNA-3] |  |  |  | ~0.015 |  | 2.7 nm and 2.7 ± 0.04 nm |  |  |  | 
CCCCCCCCCCCO[C@H]([C@@H](OCCCCCCCCCCC)[C@H](CO[C@@H]1OC(CO)[C@@H](O)C(O)C1O)O[C@@H]1OC(CO)[C@@H](O)C(O)C1O)[C@H](CO[C@@H]1OC(CO)[C@@H](O)C(O)C1O)O[C@@H]1OC(CO)[C@@H](O)C(O)C1O (some centres unmarked) [MNA-4] |  | level of protein aggregation similar to DDM |  | ~0.006 |  | 2.9 nm and 2.9 ± 0.12 nm |  |  |  | 
CCCCCCCCCCCCCO[C@H]([C@@H](OCCCCCCCCCCCCC)[C@H](CO[C@@H]1OC(CO)[C@@H](O)C(O)C1O)O[C@@H]1OC(CO)[C@@H](O)C(O)C1O)[C@H](CO[C@@H]1OC(CO)[C@@H](O)C(O)C1O)O[C@@H]1OC(CO)[C@@H](O)C(O)C1O (some centres unmarked) [MNA-6] |  | lower level of Bor1 aggregation than DDM | 2 | ~0.002 |  | 3.3 nm and 3.3 ± 0.04 nm | best effect on stabilization of the Bor1 | uniform background clutter that were relatively smaller in quantity | secured for a prolonged period of time | smaller in size compared to those formed by DDM
CCCCCCCCCCCCCCO[C@H]([C@@H](OCCCCCCCCCCCCCC)[C@H](CO[C@@H]1OC(CO)[C@@H](O)C(O)C1O)O[C@@H]1OC(CO)[C@@H](O)C(O)C1O)[C@H](CO[C@@H]1OC(CO)[C@@H](O)C(O)C1O)O[C@@H]1OC(CO)[C@@H](O)C(O)C1O (some centres unmarked) [MNA-7] |  | lower level of Borl aggregation than DDM | 1 | ~0.001 |  | 3.3 nm and 3.3 ± 0.08 nm |  | uniform background clutter that were relatively smaller in quantity | secured for a prolonged period of time | smaller in size compared to those formed by DDM
CCCCCCCCCCCCCCCO[C@H]([C@@H](OCCCCCCCCCCCCCCC)[C@H](CO[C@@H]1OC(CO)[C@@H](O)C(O)C1O)O[C@@H]1OC(CO)[C@@H](O)C(O)C1O)[C@H](CO[C@@H]1OC(CO)[C@@H](O)C(O)C1O)O[C@@H]1OC(CO)[C@@H](O)C(O)C1O (some centres unmarked) [MNA-8] |  |  |  | ~0.003 |  | 3.5 nm and 3.5 ± 0.1 nm |  |  |  | 
CCCCCCCCCCCCCCCCO[C@H]([C@@H](OCCCCCCCCCCCCCCCC)[C@H](CO[C@@H]1OC(CO)[C@@H](O)C(O)C1O)O[C@@H]1OC(CO)[C@@H](O)C(O)C1O)[C@H](CO[C@@H]1OC(CO)[C@@H](O)C(O)C1O)O[C@@H]1OC(CO)[C@@H](O)C(O)C1O (some centres unmarked) [MNA-9] |  |  | 1 | ~0.001 |  | 3.8 nm and 3.8 ± 0.1 nm |  |  |  | 
CCCCCCCCCCCCCCCCCO[C@H]([C@@H](OCCCCCCCCCCCCCCCCC)[C@H](CO[C@@H]1OC(CO)[C@@H](O)C(O)C1O)O[C@@H]1OC(CO)[C@@H](O)C(O)C1O)[C@H](CO[C@@H]1OC(CO)[C@@H](O)C(O)C1O)O[C@@H]1OC(CO)[C@@H](O)C(O)C1O (some centres unmarked) [MNA-10] |  |  | 1 | ~0.001 |  | 4.1 nm and 4.1 ± 0.2 nm |  |  |  | 
